Assay results published in patent US20260042731A1, “(2,4-DICHLOROPHENOXY)ACETIC ACID ANALOGS” (CORTEVA AGRISCIENCE LLC, priority 2022, published 2026).
Where two headings read alike, the source gives them in different places.

Key:
[1] = tested on: weeds ABUTH, AMATA, AMBEL, CHEAL, ERICA; assay: Postemergence herbicide evaluation, overall average % weed control across ABUTH, AMATA, AMBEL, CHEAL and ERICA; type: in vivo; conditions: post-emergence, average over five weeds, read-out: Overall Ave % Weed Control; for pest or weed control at 280 g/ha: 280 g ae/ha; for pest or weed control at 560 g/ha: 560 g ae/ha
[2] = tested on: Chenopodium album (CHEAL), common lambsquarters; assay: Postemergence herbicide evaluation, growth of Chenopodium album (CHEAL); type: in vivo; conditions: Chenopodium album, post-emergence, percent reduction in plant size vs untreated control, read-out: Ave. CHEAL; for pest or weed control at 280 g/ha: 280 g ae/ha; for pest or weed control at 560 g/ha: 560 g ae/ha
[3] = tested on: Abutilon theophrasti (ABUTH), velvetleaf; assay: Postemergence herbicide evaluation, growth of Abutilon theophrasti (ABUTH); type: in vivo; conditions: Abutilon theophrasti, post-emergence, percent reduction in plant size vs untreated control, read-out: AVE. ABUTH; for pest or weed control at 280 g/ha: 280 g ae/ha; for pest or weed control at 560 g/ha: 560 g ae/ha
[4] = tested on: Amaranthus rudis (AMATA), tall water hemp; assay: Postemergence herbicide evaluation, growth of Amaranthus rudis (AMATA); type: in vivo; conditions: Amaranthus tuberculatus, post-emergence, percent reduction in plant size vs untreated control, read-out: Ave. AMATA; for pest or weed control at 280 g/ha: 280 g ae/ha; for pest or weed control at 560 g/ha: 560 g ae/ha
[5] = tested on: Ambrosia artemisiifolia (AMBEL), common ragweed; assay: Postemergence herbicide evaluation, growth of Ambrosia artemisiifolia (AMBEL); type: in vivo; conditions: Ambrosia artemisiifolia, post-emergence, percent reduction in plant size vs untreated control, read-out: AVE. AMBEL; for pest or weed control at 280 g/ha: 280 g ae/ha; for pest or weed control at 560 g/ha: 560 g ae/ha
[6] = Volatility of compounds measured by thermogravimetric analysis (TGA); type: physicochemical
[7] = tested on: glyphosate resistant Conyza canadensis (L.) (ERICA), horseweed; assay: Postemergence herbicide evaluation, growth of Conyza canadensis (ERICA); type: in vivo; conditions: Erigeron canadensis, post-emergence, percent reduction in plant size vs untreated control, read-out: Ave. ERICA; for pest or weed control at 280 g/ha: 280 g ae/ha; for pest or weed control at 560 g/ha: 560 g ae/ha

Row | SMILES | pest or weed control at 280 g/ha ([1]; 168 h, 7 DAA) [%] | pest or weed control at 280 g/ha ([1]; 336 h, 14 DAA) [%] | pest or weed control at 560 g/ha ([1]; 336 h, 14 DAA) [%] | pest or weed control at 280 g/ha ([1]; 504 h, 21 DAA) [%] | pest or weed control at 560 g/ha ([1]; 504 h, 21 DAA) [%] | pest or weed control at 280 g/ha ([2]; 168 h, 7 DAA) [%] | pest or weed control at 280 g/ha ([2]; 336 h, 14 DAA) [%] | pest or weed control at 560 g/ha ([2]; 336 h, 14 DAA) [%] | pest or weed control at 280 g/ha ([2]; 504 h, 21 DAA) [%] | pest or weed control at 560 g/ha ([2]; 504 h, 21 DAA) [%] | pest or weed control at 280 g/ha ([3]; 168 h, 7 DAA) [%] | pest or weed control at 280 g/ha ([3]; 336 h, 14 DAA) [%] | pest or weed control at 560 g/ha ([3]; 336 h, 14 DAA) [%] | pest or weed control at 280 g/ha ([3]; 504 h, 21 DAA) [%] | pest or weed control at 560 g/ha ([3]; 504 h, 21 DAA) [%] | pest or weed control at 280 g/ha ([4]; 168 h, 7 DAA) [%] | pest or weed control at 280 g/ha ([4]; 336 h, 14 DAA) [%] | pest or weed control at 560 g/ha ([4]; 336 h, 14 DAA) [%] | pest or weed control at 280 g/ha ([4]; 504 h, 21 DAA) [%] | pest or weed control at 560 g/ha ([4]; 504 h, 21 DAA) [%] | also measured
1 | Cc1cc(NC(=O)COc2ccc(Cl)cc2Cl)n(C)n1 [Compound D14] | 69.5 | 79.6 | 85 | 83.7 | 91.5 | 72.5 | 96.5 | 90 | 95 | 100 | 37.5 | 45 | 52.5 | 52.5 | 65 | 75 | 90 | 91.5 | 72.5 | 92.5 | pest or weed control at 560 g/ha ([1]; 168 h, 7 DAA): 69.5%; pest or weed control at 560 g/ha ([2]; 168 h, 7 DAA): 75%; pest or weed control at 560 g/ha ([3]; 168 h, 7 DAA): 50%; pest or weed control at 560 g/ha ([4]; 168 h, 7 DAA): 75%; pest or weed control at 280 g/ha ([5]; 168 h, 7 DAA): 80%; pest or weed control at 560 g/ha ([5]; 168 h, 7 DAA): 75%; pest or weed control at 280 g/ha ([5]; 336 h, 14 DAA): 72.5%; pest or weed control at 560 g/ha ([5]; 336 h, 14 DAA): 97%; pest or weed control at 280 g/ha ([5]; 504 h, 21 DAA): 100%; pest or weed control at 560 g/ha ([5]; 504 h, 21 DAA): 100%; TGA Data (rate of weight loss, volatility) [6]: 0.01234 µg/min; pest or weed control at 280 g/ha ([7]; 168 h, 7 DAA): 82.5%; pest or weed control at 560 g/ha ([7]; 168 h, 7 DAA): 72.5%; pest or weed control at 280 g/ha ([7]; 336 h, 14 DAA): 94%; pest or weed control at 560 g/ha ([7]; 336 h, 14 DAA): 94%; pest or weed control at 280 g/ha ([7]; 504 h, 21 DAA): 98.5%; pest or weed control at 560 g/ha ([7]; 504 h, 21 DAA): 100%
2 | O=C(COc1ccc(Cl)cc1Cl)Oc1cccnc1 [Compound E9] | 74.5 | 89.2 | 96.4 | 94 | 97.4 | 75 | 96.5 | 99 | 90 | 93.5 | 57.5 | 75 | 98 | 88.5 | 99.5 | 77.5 | 85 | 87.5 | 92.5 | 94 | pest or weed control at 660 g/ha ([1]; 168 h, 660 g ae/ha, 7 DAA): 84%; pest or weed control at 660 g/ha ([2]; 168 h, 660 g ae/ha, 7 DAA): 80%; pest or weed control at 660 g/ha ([3]; 168 h, 660 g ae/ha, 7 DAA): 82.5%; pest or weed control at 660 g/ha ([4]; 168 h, 660 g ae/ha, 7 DAA): 92.5%; pest or weed control at 280 g/ha ([5]; 168 h, 7 DAA): 80%; pest or weed control at 660 g/ha ([5]; 168 h, 660 g ae/ha, 7 DAA): 87.5%; pest or weed control at 280 g/ha ([5]; 336 h, 14 DAA): 90%; pest or weed control at 560 g/ha ([5]; 336 h, 14 DAA): 97.5%; pest or weed control at 280 g/ha ([5]; 504 h, 21 DAA): 100%; pest or weed control at 560 g/ha ([5]; 504 h, 21 DAA): 100%; TGA Data (rate of weight loss, volatility) [6]: 0.6748 µg/min; pest or weed control at 280 g/ha ([7]; 168 h, 7 DAA): 82.5%; pest or weed control at 660 g/ha ([7]; 168 h, 660 g ae/ha, 7 DAA): 77.5%; pest or weed control at 280 g/ha ([7]; 336 h, 14 DAA): 99.5%; pest or weed control at 560 g/ha ([7]; 336 h, 14 DAA): 100%; pest or weed control at 280 g/ha ([7]; 504 h, 21 DAA): 99%; pest or weed control at 560 g/ha ([7]; 504 h, 21 DAA): 100%
3 | CCN(CC)OC(=O)COc1ccc(Cl)cc1Cl [Compound A21] | 74.5 | 84.4 | 94.1 | 93 | 99.7 | 77.5 | 92.5 | 96.5 | 97.5 | 99 | 60 | 67.5 | 94.5 | 90 | 99.5 | 80 | 90 | 87.5 | 80 | 100 | pest or weed control at 560 g/ha ([1]; 168 h, 7 DAA): 81.5%; pest or weed control at 560 g/ha ([2]; 168 h, 7 DAA): 82.5%; pest or weed control at 560 g/ha ([3]; 168 h, 7 DAA): 87.5%; pest or weed control at 560 g/ha ([4]; 168 h, 7 DAA): 85%; pest or weed control at 280 g/ha ([5]; 168 h, 7 DAA): 70%; pest or weed control at 560 g/ha ([5]; 168 h, 7 DAA): 70%; pest or weed control at 280 g/ha ([5]; 336 h, 14 DAA): 80%; pest or weed control at 560 g/ha ([5]; 336 h, 14 DAA): 98%; pest or weed control at 280 g/ha ([5]; 504 h, 21 DAA): 100%; pest or weed control at 560 g/ha ([5]; 504 h, 21 DAA): 100%; TGA Data (rate of weight loss, volatility) ([6]; value marked *: decomposition of the material was observed): 1.352* μg/min; pest or weed control at 280 g/ha ([7]; 168 h, 7 DAA): 85%; pest or weed control at 560 g/ha ([7]; 168 h, 7 DAA): 82.5%; pest or weed control at 280 g/ha ([7]; 336 h, 14 DAA): 92%; pest or weed control at 560 g/ha ([7]; 336 h, 14 DAA): 94%; pest or weed control at 280 g/ha ([7]; 504 h, 21 DAA): 97.5%; pest or weed control at 560 g/ha ([7]; 504 h, 21 DAA): 100%
